From publication PMC11489133, “Obicetrapib exhibits favorable physiochemical and pharmacokinetic properties compared to previous cholesteryl ester transfer protein inhibitors: An integrated summary of results from non‐human primate studies and clinical trials” (Pharmacology Research & Perspectives, 2024) come the findings set out here.

A short description of data set [1]: disposition of 14C-obicetrapib after a single oral dose of 20 mg/kg in the cynomolgus monkey. The format is in vivo. As to conditions: urine and feces samples. As to the method: Figure 1 illustrates the metabolism of obicetrapib (TA‐8995) in the cynomolgus monkey. A study was conducted to examine the disposition of ^14C‐obicetrapib following oral administration in the cynomolgus monkey (n = 3 males) at a dose level of 20 mg/kg. […] The monkeys each received a single oral dose of ^14C‐obicetrapib by gavage at a target dose level of 20 mg/kg and a nominal dose volume of 5 mL/kg. […] After the final blood collection, radioactivity was measured in the blood and plasma by liquid scintillation counting. The profile of M1 in selected samples of plasma was determined by high‐performance liquid chromatography (HPLC) (following extraction of the matrix, where relevant) and selected M1 were identified by liquid chromatography mass spectrometry. In plasma, unchanged obicetrapib and a M1 were the principal radioactive components and represented at least 66% of the chromatographic radioactivity in any single profile.

Data set [2] in a line: Phase I food effect trial on obicetrapib bioavailability (TA‐8995‐09). It counts as in vivo, humans. As to conditions: for Cmax / AUC / t max: both sexes, human, plasma, oral, 10 mg; for t max: read-out: t max, median (minimum, maximum). As to the method:
The PK parameters and the effect of food on the bioavailability of obicetrapib in humans have been examined in both Phase I[9] (TA‐8995‐09 CSR, NewAmsterdam Pharma) and Phase II trials.[10], [11], [12], [13] The trials were performed in accordance with the Declaration of Helsinki, Good Clinical Practice Guidelines, and applicable regulatory requirements. Approval was obtained from the relevant ethical review boards for each site. All volunteers provided written informed consent prior to participation. PK parameters were determined using WinNonlin software, version 4.1 or higher (Pharsight/Certara Corporation, USA). Concentrations of obicetrapib were summarized for each treatment group using descriptive statistics.
This was an open‐label, randomized, two‐sequence, two‐period, two‐treatment crossover study conducted to evaluate the effect of food on the bioavailability of 10 mg obicetrapib. Thirty healthy adult males and females were randomized to treatment and data were available for 23 participants. In Treatment Period I, participants received a single 10 mg dose of obicetrapib after an overnight fast. In Treatment Period II, participants received a single 10 mg dose of obicetrapib at 30 min following the start of a standardized high‐fat, high‐calorie breakfast that was preceded by an overnight fast. Blood samples were collected at pre‐dose and at intervals over 336 h after dosing in each treatment period. The interval between doses was 49 days. The half‐life of obicetrapib was expected to be less than 6 days; therefore, it was anticipated that 49 days would be well beyond five half‐lives and an adequate washout period (TA‐8995‐09 CSR, NewAmsterdam Pharma).

Data set [3] is described as follows: Phase II trials of obicetrapib, integrated summary of post-treatment elimination. The format is in vivo, humans. The text has this:
The Phase II trials of obicetrapib described herein include the TA‐8995: Its Use in Patients with Mild Dyslipidaemia (TULIP)[10] study, the Randomized Study of Obicetrapib as an Adjunct to Statin Therapy (ROSE),[11] the Study to Evaluate the Effect of Obicetrapib in Combination with Ezetimibe as an Adjunct to High‐Intensity Statin Therapy (ROSE2),[12] and A Dose‐Finding Study in Japanese Patients to Evaluate the Effect of Obicetrapib as an Adjunct to Stable Statin Therapy (TA‐8995‐203).[13]

Each structure is given as a SMILES string. Where “and” joins values, the source holds several entries; their conditions need not be identical. Identical values can stand only once. Like-named read-outs stand apart in the source and are kept apart here.

As for `CCOC(=O)N1c2ccc(C(F)(F)F)cc2C(N(Cc2cc(C(F)(F)F)cc(C(F)(F)F)c2)c2ncc(OCCCC(=O)O)cn2)CC1CC` (stereo not drawn) [Obicetrapib], the metabolism of obicetrapib result in data set [1] is “extensive”. For the same compound, the “increase of peak and overall systemic exposure (AUC, C max) under fed compared to fasted conditions” value in data set [2] (10 mg dose, high‐fat meal) was ~ 1.6 fold and 1.6 fold. Also, the “least‐squares geometric mean of fed versus fasted ratio, AUC0‐t” value in data set [2] (10 mg single dose) is given as 154.9%. Moreover, the “least‐squares geometric mean of fed versus fasted ratio, AUC0‐∞” value in data set [2] (10 mg single dose) was determined as 155.4%. Also, in data set [2] (10 mg single dose), the “least‐squares geometric mean of fed versus fasted ratio, C max” value was 158.5%. For the same compound, in data set [2] (10 mg single dose, n = 23), the “AUC(0‐t), LSGM Ratio (90% CI) (Fed vs. Fasted)” value is 155 (130, 184). In addition, the “AUC(0‐∞), LSGM Ratio (90% CI) (Fed vs. Fasted)” value in data set [2] (10 mg single dose, n = 23) is given as 155 (129, 187). The “C max, LSGM Ratio (90% CI) (Fed vs. Fasted)” value in data set [2] (10 mg single dose, n = 23) is 159 (126, 199). The Cmax in data set [2] (10 mg single dose, Fasted, n = 23) was 140 ng/mL; in data set [2] (10 mg single dose, Fed (high‐fat, high‐calorie breakfast), n = 23), 222 ng/mL. Moreover, the AUC in data set [2] (10 mg single dose, Fasted, n = 23, read-out: AUC(0‐t), LS GM (converted)) was 12400 ng·h/mL; in data set [2] (10 mg single dose, Fasted, n = 23, read-out: AUC(0‐∞), LS GM (converted)), 16600 ng·h/mL; in data set [2] (10 mg single dose, Fed, n = 23, read-out: AUC(0‐t), LS GM (converted)), 19200 ng·h/mL; in data set [2] (10 mg single dose, Fed, n = 23, read-out: AUC(0‐∞), LS GM (converted)), 25800 ng·h/mL. In addition, the t max in data set [2] (10 mg single dose, fasted) turned out to be 5 h; in data set [2] (10 mg single dose, fed) it was 5.5 h. For the same compound, the results for the “decrease of plasma levels of obicetrapib” value in data set [3] (15 weeks post‐treatment) and in data set [3] (four weeks post‐treatment) were 98.5% and 92.2%, respectively.
